According to PubChem BioAssay AID493002 (Sanford-Burnham Center for Chemical Genomics, 2010):

System: S. cerevisiae tim23-1 mutant growth, luminescence
Assay: potency against tim23-1 yeast growth – luminescence, uHTS hits, dose response (AID 493002);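 also: yeast grown roughly 22 hours at 25 °C before the luminescence read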

Row | Compound | IC50 [µM]
1 | Cc1csc2nc(O)c(C(=O)NCCC3=CCCCC3)c(=O)n12 | 4.88
2 | O=c1c(-c2ccc3c(c2)OCCO3)c(C(F)(F)F)oc2cc(O)cc(O)c12 | 12.6
3 | COc1ccc(/C=N/NC(=O)c2cccs2)c2ccccc12 | 13.7
4 | CCOC(=O)C1=C(CSc2nc(CC)c(C)cc2C#N)OC(N)=C(C#N)C1c1ccc(OC)cc1 (configuration not stated) | 17.8
5 | CC1(C)CC(=O)C=C(c2cccc(Cl)c2O)C1 | 8.1
6 | Nc1c(C(=O)Nc2ccc3c(c2)OCCO3)nnn1Cc1ccccc1Cl | 12.4
7 | COc1ccc(-c2nc3ccccc3[nH]2)cc1 | 18
8 | CCOC(=O)Nc1cccc(NC(=O)c2ccccc2F)c1 | 13.3
9 | COc1cccc(CNn2c(-c3cccc(C)c3)nc3ccccc3c2=O)c1O | 10.1
10 | CCc1ccc(C2CC(=O)NC(SCC(=O)OC(C)C)=C2C#N)cc1 (configuration not stated) | 18.2
11 | COc1ccc(NCc2ccc([N+](=O)[O-])s2)cc1 | 6.99
12 | Oc1ccccc1C1NN=C(c2ccccc2)S1 (configuration not stated) | 18.3
13 | O=C(Nc1nsc(-c2ccccc2)n1)c1cccs1 | 8.04
14 | CS(=O)(=O)c1ccc2nc(NC(=O)c3ccco3)sc2c1 | 19.4
15 | O=C(Nc1ccc2nc(-c3ccc(Br)o3)[nH]c2c1)c1cccs1 | 1.35
16 | Cc1cccc(N2C(=O)c3ccc(Br)cc3C2=O)n1 | 12.7
17 | CCn1ncc([N+](=O)[O-])c1C(=O)Nc1nc2cccc(C)c2s1 | 17.7
18 | COc1ccc(CCCC(=O)N/N=C/c2ccc(C)cc2)cc1 | 16.7
19 | O=C(CC(=O)c1cc(Cl)ccc1O)c1ccccc1 | 7.07
20 | O=C(Nc1ccccc1)C1C(c2ccccc2)C1(Cl)Cl (configuration not stated) | 14.9
21 | Cc1ccc2c(c1)COc1c3ccc(C(=O)NC(C)C)cc3nn1-2 | 24
22 | Oc1ccccc1-c1cc(-c2ccccc2)n[nH]1 | 15.8
23 | O=C(NCCCc1ccccc1)Nc1cccc(Cl)c1 | 9.3
24 | O=C1Nc2ccccc2/C1=C/c1ccccc1Cl | 7.21
25 | Oc1ccc(-c2csc(Nc3ccccn3)n2)c(O)c1 | 24.9

Row | Compound | IC50 [µM]
26 | NC(N)=N/N=C/c1ccc(OCc2ccccc2Cl)cc1 | 18
27 | O=C(Nc1ccc(Nc2ccccc2)cc1)c1ccccc1F | 21.9
28 | CCOc1cc2c3c(c1)C(C)CC(C)(C)N3C(=O)C2=O (configuration not stated) | 14.1
29 | COc1ccc(-c2cc(-c3ccccc3O)[nH]n2)cc1 | 9.38
30 | Cc1ccc(CNc2oc(-c3cccs3)nc2C#N)cc1 | 25.6
31 | CC(C)(C)c1ccc(Oc2ccc(N)cc2)cc1 | 4.63
32 | O=C(CSc1cccs1)Nc1ccc2ccccc2c1 | 12.2
33 | COc1cc2ccccc2cc1C(=O)Nc1ccc(C)cc1 | 12.5
34 | Cc1ccc(NC(=O)c2cc(C)n(-c3ccccc3)c2C)cc1 | 21
35 | N#C/C(=C\c1cc(Cl)cc(Cl)c1O)C(=O)NC1CCCCC1 | 10
36 | CCCN1C(=O)C(=O)c2cc(Cl)ccc21 | 19.1
37 | COc1cc2c3c(c1)C(C)=CC(C)(C)N3C(=O)C2=O | 8.81
38 | CC(C)CN1C(=O)c2ccc(NC(=O)c3ccco3)cc2C1=O | 20.2
39 | CCCCC(=O)Nc1ccc(NC(=O)c2cccs2)cn1 | 18.8
40 | CN(C(=O)c1ccco1)c1nnc(C23CC4CC(CC(C4)C2)C3)s1 | 20.8
41 | Brc1cccc(-c2n[nH]c(-c3ccccc3)n2)c1 | 11.5
42 | O=C(Nc1ccc2nc(-c3ccccc3)[nH]c2c1)c1cccs1 | 3.62
43 | COc1ccc2c(c1)sc1nc(-c3ccccc3)cn12 | 6.68
44 | CC1=NN(c2ccccc2)C(=O)/C1=C/c1c(O)n(-c2ccc(F)c(Cl)c2)[nH]c1=O | 24.3
45 | CC1=C(C)/C(=N/OC(=O)c2cccc([N+](=O)[O-])c2)C=CC1=O | 8.03
46 | Nc1ccc(O)c2c1C(=O)c1ccccc1C2=O | 11.3
47 | CC1c2[nH]c3ccccc3c2CCN1C(=O)Nc1ccccc1 (configuration not stated) | 12.1
48 | COc1ccc2c(=O)c3c(=O)n(Cc4ccco4)c(-c4ccc(C)cc4)nc3oc2c1 | 20
49 | CC(C)(C)c1ccc(OCC(=O)NCc2ccco2)c(Br)c1 | 5.94
50 | O=C(N/N=C/c1cccc(F)c1)c1csc2c1CCCC2 | 11.4

Row | Compound | IC50 [µM]
51 | Cc1ccc2occ(C(=O)c3ccco3)c(=O)c2c1 | 9.16
52 | CC(/C=N/NC(=O)c1cccs1)=C\c1ccco1 | 24.3
53 | CC(C)(C)N1C(=O)c2ccc(C(=O)Nc3nccs3)cc2C1=O | 20.3
54 | Cc1ccc2nc(N3CCN(C=O)CC3)nc(-c3ccccc3)c2c1 | 11.9
55 | CCN(CC)c1ccc2c(C)c(-c3ccc(N)cc3)c(=O)oc2c1 | 13.9
56 | O=C(NCc1cccnc1)/C(=C\c1ccc(-c2ccc(Br)cc2)o1)S(=O)(=O)c1ccccc1 | 4.25
57 | O=C(N/N=C/c1cccs1)c1cc(-c2cccc3ccccc23)n[nH]1 | 28
58 | CC(C)(C)C(=O)c1sc(Nc2ccccc2)nc1N | 12
59 | CCCn1nnc(NC(=O)c2sc3ccccc3c2Cl)n1 | 20.7
60 | O=C(CS(=O)(=O)c1ccccc1)Nc1nc(-c2ccc(F)cc2)cs1 | 14.2
61 | Cc1ccn(-c2ccc(NC(=O)c3cccs3)cc2)n1 | 7.04
62 | O=C(Nc1cc(-c2ccccc2)[nH]n1)c1ccccc1F | 20.2
63 | COc1ccc(C(=O)COC(=O)c2cncc(Br)c2)cc1 | 10.1
64 | O=C(Nc1ccc(F)c(Cl)c1)C1CC2CCC1C2 (configuration not stated) | 21.6
65 | COc1ccc2c(=O)c3c(=O)n(Cc4ccco4)c(-c4ccccc4)nc3oc2c1 | 17.5
66 | Cc1ccc(C(=O)NC2=NCCS2)cc1Cl | 16.6
67 | Cc1ccc2c(c1)C(=O)N1[C@H]3c4ccccc4OC[C@@H]3[C@H](c3ccccc3)[C@]1(C)C(=O)N2 | 4.99
68 | N#Cc1c(-c2ccccc2)cc(-c2ccc(O)cc2)nc1N | 5.58
69 | CC(=O)Nc1ccc(S(=O)(=O)N(Cc2cccnc2)Cc2cc3ccc(C)cc3[nH]c2=O)cc1 | 23.1
70 | C#CCOCCOCCOCCNc1nc(N2CCN(C(=O)CCCCCCCCCCNC(=O)[C@H](CCCCN)n3cc(CCO)nn3)CC2)nc(N2CCN(C(=O)CCCCCCCCCCNC(=O)[C@H](CCCCN)n3cc(C[C@@H](C)CC)nn3)CC2)n1 | 17.1
71 | COc1ccc(C(C[N+](=O)[O-])c2c(-c3ccccc3)cc3ccccn23)cc1 (configuration not stated) | 8.82
72 | C#CCOCCOCCOCCNc1nc(N2CCN(C(=O)CCCCCCCCCCNC(=O)[C@H](CCCCN)n3cc(C)nn3)CC2)nc(N2CCN(C(=O)CCCCCCCCCCNC(=O)[C@H](CCCN=C(N)N)n3cc(C[C@@H](C)CC)nn3)CC2)n1 | 10.4
73 | CCNC(=O)c1c(O)c2ccccc2[nH]c1=O | 33.5
74 | c1ccc(-c2nc(NCc3cccs3)c3ccccc3n2)cc1 | 12.7
75 | O=C(N/N=C/c1coc2ccc(Cl)cc2c1=O)c1ccncc1 | 22.3

Row | Compound | IC50 [µM]
76 | O=C1NC(=S)SC1=C1CCCCCC1 | 7.78
77 | Oc1ccc(-c2nccc(-c3cccs3)n2)cc1 | 20.2
78 | COc1ccc(C(=O)N/N=C/c2ccc(OC)c(COc3ccc(F)cc3F)c2)cc1 | 24.9
79 | O=C(Nc1ccc(-c2cn3ccccc3n2)cc1)c1ccco1 | 6.01
80 | Cc1ccc(O)c(N=Cc2cc(Cc3ccccc3)cc([N+](=O)[O-])c2O)c1 | 10.6
81 | Cc1ccc2occ(/C=N/NC(=O)c3ccncc3)c(=O)c2c1 | 21.6
82 | Oc1ccc2ccccc2c1/C=N/c1nccs1 | 10.4
83 | Nc1ccc(C(=O)Nc2nc3ccccc3s2)cc1 | 10.4
84 | Fc1ccccc1-c1cc2cc3c(cc2cn1)OCO3 | 16.1
85 | CC(C)(C)c1csc(NC(=O)c2ccc(Br)o2)n1 | 9.04
86 | Cc1nc2c(n1C1CCCCC1)C(=O)c1ccccc1C2=O | 10.8
87 | COC(=O)c1ccc(NC(=O)c2nc(S(=O)(=O)Cc3cccc(C)c3)ncc2Cl)cc1 | 1.09
88 | C=CCNC(=O)c1ccc2c3n(nc2c1)-c1ccc(Cl)cc1CO3 | 6.9
89 | N=C1/C(=C\c2coc3ccccc3c2=O)C(=O)N=C2SC=CN12 | 8.9
90 | CC1CCCCN1C(=O)Nc1cccc(Cl)c1 (configuration not stated) | 14.1
91 | Cc1ccc(-c2nn(-c3ccccc3)cc2NC(=O)CCl)cc1 | 4.31
92 | O=C(N/N=C/c1ccc2cccnc2c1)c1ccco1 | 18.8
93 | Cc1ccc(-c2nnc(N3CCN(c4ccccn4)CC3)c3ccccc23)cc1 | 7.64
94 | CCOC(=O)c1cccnc1SCc1cc(=O)n2ccccc2n1 | 9.96
95 | COc1ccc(N2CCN(CCC(=O)c3ccc4ccccc4c3)CC2)cc1 | 8.84
96 | CC[C@@]1(c2ccccc2OC)ON(c2ccccc2C(F)(F)F)C1=O | 5.91
97 | Cc1cccc(NC(=O)c2cc3ccccc3o2)c1 | 13
98 | O=C(CSc1ccccc1)N/N=C/c1ccccc1O | 27.5
99 | O=C(N/N=C/C(Cl)=C\c1ccccc1)c1cccs1 | 4.85
100 | O=C(Nc1cccc(F)c1)N1CC=C(c2ccc(Cl)cc2)CC1 | 12.8

Row | Compound | IC50 [µM]
101 | Cc1ccc(Nc2nc(-c3sc(N)nc3C)cs2)cc1 | 13.4
102 | Cc1nc2ccccc2n1/N=C/c1ccc([N+](=O)[O-])s1 | 1.58
103 | O=C1c2ccccc2C(=O)N1c1nc(-c2cccs2)cs1 | 3.63
104 | Cc1ccc(NC(=O)c2ccc3c(c2)OCCO3)cc1C | 13
105 | Cc1ccc(Nc2nc(Cl)c(C=O)s2)cc1Cl | 5.76
106 | C=CCN=c1scc(-c2ccco2)n1/N=C/c1ccc(O)c(O)c1O | 16.1
107 | O=CN(/C=C1\Sc2ccccc2C1=O)Cc1ccccc1 | 7.02
108 | COc1ccccc1C(=O)Nc1nnc(-c2ccc3c(c2)CCCC3)o1 | 13.8
109 | O=C(CSc1nnnn1Cc1ccccc1)c1ccc(F)cc1 | 20
110 | CN1CCc2nc3sc(C(=O)C45CC6CC(CC(C6)C4)C5)c(N)c3cc2C1 | 2.43
111 | O=C(Nc1ccc(C(=O)N2CCCc3ccccc32)cc1)c1cccs1 | 7.75
112 | CCOC(=O)c1cccc(OC(=O)CCNC(=O)c2ccc(Cl)cc2)c1 | 13.1
113 | O=C1OC(c2ccccc2)=N/C1=C\C=C\c1ccco1 | 5.33
114 | CN(C)/C=C1/C=C(c2ccccc2)OC1=O | 12
115 | O=C(Nc1nc2ccccc2s1)C1CCCN1S(=O)(=O)c1ccc(Cl)cc1 (configuration not stated) | 8.08
116 | O=C(CSc1cccc[n+]1[O-])CSc1cccc[n+]1[O-] | 5.83
117 | Cn1c(-c2sc3ccccc3c2Cl)n[nH]c1=S | 7.61
118 | O=C(/C(=C/O)N=Nc1ccccc1)c1ccco1 | 10.7
119 | O=S(=O)(CCSc1ccccn1)c1nc2ccccc2s1 | 10
120 | CC(=O)Nc1cccc(-c2cc(-c3c(Cl)cccc3Cl)no2)c1 | 11.1
121 | Cc1ccccc1OCCCSc1nc2ccccc2[nH]1 | 9.44
122 | O=C(Nc1ccc(F)c(Cl)c1)c1ccccc1 | 11.5
